Reference: PubChem BioAssay (NCI)
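All cell lines were grown in 96-well plates and treated with compound for 48 hours. GI50 = concentration required for 50% inhibition of growth. At the TGI there is no net growth.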

Experiments:
Assay in all cases: DTP human tumour cell line panel, 48 h
RXF 393 renal = system: RXF 393 renal
UACC-62 melanoma = system: UACC-62 melanoma
CCRF-CEM leukemia = system: CCRF-CEM leukemia
TK-10 renal = system: TK-10 renal
SF-295 CNS = system: SF-295 CNS
MALME-3M melanoma = system: MALME-3M melanoma
HCT-116 colon = system: HCT-116 colon
K-562 leukemia = system: K-562 leukemia
PC-3 prostate = system: PC-3 prostate
MCF7 breast = system: MCF7 breast

SMILES | TGI (RXF 393 renal) [µM] | TGI (UACC-62 melanoma) [µM] | TGI (CCRF-CEM leukemia) [µM] | TGI (TK-10 renal) [µM] | TGI (SF-295 CNS) [µM] | TGI (MALME-3M melanoma) [µM] | TGI (HCT-116 colon) [µM] | TGI (K-562 leukemia) [µM] | GI50 (RXF 393 renal) [µM] | GI50 (UACC-62 melanoma) [µM] | GI50 (CCRF-CEM leukemia) [µM] | GI50 (TK-10 renal) [µM] | GI50 (PC-3 prostate) [µM] | TGI (PC-3 prostate) [µM] | GI50 (SF-295 CNS) [µM] | GI50 (MCF7 breast) [µM] | TGI (MCF7 breast) [µM] | GI50 (HCT-116 colon) [µM] | GI50 (K-562 leukemia) [µM] | GI50 (MALME-3M melanoma) [µM]
O=C(O)CCC(NC(=O)c1ccccc1)C(=O)O (stereo not drawn) | > 100 | > 100 | > 100 | > 100 | > 100 | > 100 | > 100 | > 100 |  |  |  |  |  |  |  |  |  |  |  | 
CCCCCCCCCCC(C(O)c1ccccc1)N1CCCCC1 (stereo not drawn) | 3.4 | 4.01 | 7.77 | 4.83 | 3.23 |  | 3.01 | 5.93 | 1.76 | 2.01 | 1.97 | 2.16 | 3.43 | 12.4 | 1.83 | 1.87 | 3.43 | 1.62 | 2.19 | 
O=C1CCCC(=O)N1CCc1c[nH]c2ccccc12 | > 100 | > 100 | > 100 | > 100 | > 100 | > 100 | > 100 | > 100 |  |  |  |  |  |  |  |  |  |  |  | 
Clc1ccc2nnnn2n1 | 8.65 | 27.5 | 29.8 | 23.6 | > 100 | 31.4 | 4.46 | 17.4 | 2.75 | 2.77 | 3.74 | 3.5 |  |  | 4.05 | 3.11 | 14.3 | 2.06 | 2.77 | 12.1
c1ccc2cc3[s+]snc3cc2c1 | > 100 | > 100 | > 100 | > 100 | > 100 | > 100 | > 100 | > 100 |  |  |  |  |  |  |  |  |  |  |  | 
CN(C)CCNC(=O)c1cccc2[nH]c(-c3cccnc3)nc12 | 33.8 | 34.2 | > 100 | 53.5 | > 100 |  | 42.8 | > 100 |  |  |  |  |  |  |  |  |  |  |  | 
CCCC/C=C1\CCC(C)(CN(C)C)C1=O (stereo not drawn) | > 100 | > 100 | > 100 | > 100 | > 100 | > 100 | > 100 | > 100 |  |  |  |  |  |  |  |  |  |  |  | 
O=C(NCCCCCCNC(=O)OCCSCCn1cc(C(=O)NC(=O)OCc2ccccc2)c(=O)[nH]c1=O)OCCSCCn1cc(C(=O)NC(=O)OCc2ccccc2)c(=O)[nH]c1=O | > 100 | > 100 | > 100 | > 100 | > 100 | > 100 |  | > 100 |  |  |  |  |  |  |  |  |  |  |  | 
O=C(O)CCSC(=O)Nc1ccccc1F | > 100 |  | > 100 | > 100 |  |  | > 100 | > 100 |  |  |  |  |  |  |  |  |  |  |  | 
COc1cc(-n2cc(-c3ccc(Cl)cc3)nc2SCc2cccc(C#N)c2)cc(OC)c1OC |  | > 100 | > 100 | > 100 | > 100 | 60.2 | > 100 | > 100 |  | 21.9 | > 100 | 30.5 | 30.4 | > 100 | 48.1 | 51.3 | > 100 | 37.3 | > 100 | 18.9
O=c1[nH]c(=O)c2cc(C3CC(O)C(CO)O3)ccc2[nH]1 (stereo not drawn) | > 100 | > 100 | > 100 |  | > 100 |  | > 100 | > 100 | > 100 | > 100 | > 100 |  | > 100 | > 100 | > 100 | > 100 | > 100 | > 100 | > 100 | 
O=C1C2C=CC(C2)C(c2ccc(O)cc2)N1O (stereo not drawn) |  | > 100 | > 100 | > 100 | > 100 | > 100 | > 100 | > 100 |  |  |  |  |  |  |  |  |  |  |  | 
Cc1ccc(NC(=O)C(=O)CC(=O)c2c(C)n([O-])c3ccccc3[n+]2=O)cc1 | > 100 | 32.6 | 49 | > 100 | > 100 | 65.2 | 37.2 | 56.4 |  |  |  |  |  |  |  |  |  |  |  | 
O=c1nc(NC(c2ccccc2)(c2ccccc2)c2ccccc2)ccn1CCNCCn1ccc(NC(c2ccccc2)(c2ccccc2)c2ccccc2)nc1=O | 25.6 | 24.1 | > 100 | 60.6 | 27.3 | 29.3 | 73 | > 100 |  |  |  |  |  |  |  |  |  |  |  | 
Cc1[nH]c(=O)n2c(C)nnc2c1C(=O)Nc1cc(Cl)cc(Cl)c1 | 42 | 41 | > 100 | 52.1 | > 100 | > 100 | > 100 | > 100 |  |  |  |  |  |  |  |  |  |  |  | 
C[C@]12CCC(=O)C(O)=C1CC[C@@H]1C2CC[C@]2(C)Nc3c(cnn3-c3ccccc3)CC12 (stereo partly drawn) | > 100 | > 100 | > 100 | > 100 | > 100 | > 100 | > 100 | > 100 |  |  |  |  |  |  |  |  |  |  |  | 
O=C(O)CNS(=O)(=O)c1ccc(NC(=O)CI)cc1 | 31.1 | 66.8 | 5.85 | > 100 | 68.5 | 39.6 |  | 62.1 |  |  |  |  |  |  |  |  |  |  |  | 
COC(=O)[C@]12CC=C3O[C@@H]4OC5(CCCCC5)O[C@@H]4C3[C@@H]1C(=O)CCC2=O (stereo partly drawn) |  | > 100 | > 100 |  | > 100 | > 100 | > 100 | > 100 |  |  |  |  |  |  |  |  |  |  |  | 
COc1ccc(/C(=N\O)c2cc(C)c(OC)c(C)c2)cc1O | > 100 | > 100 | > 100 | > 100 | > 100 | > 100 | > 100 |  | < 0.01 | < 0.01 | 0.0185 | 0.078 | < 0.01 | > 100 | < 0.01 | < 0.01 | > 100 | < 0.01 |  | < 0.01
O=C(O)C1C(C(=O)O)C23CC2(C(=O)O)C2(C(=O)O)CCC3=C3CCCC312 (stereo not drawn) | 37.7 | 23.5 |  | 38.1 | 20.8 | 15.2 | 66.7 | 95.5 |  |  |  |  |  | 31.2 |  |  | 63.3 |  |  | 
COc1ccccc1C1c2cc3c(cc2OC(O)(CO)C1C(=O)O)OCO3 (stereo not drawn) (tested in a mixture with another compound) | > 100 | > 100 | > 100 | > 100 | > 100 | > 100 | > 100 | > 100 |  |  |  |  |  |  |  |  |  |  |  | 
